From patent US9169243B2, “Apoptosis signal-regulating kinase inhibitors” (Gilead Sciences, Inc., priority 2013, dated 2015)
pIC50: −log10 of the molar value.

Target: recombinant human ASK1 kinase (Homo sapiens (Human), UniProt Q99683)
Assay: TR-FRET ASK1 (Apoptosis Signal-Regulating Kinase 1) kinase assay
Assay type: biochemical
Conditions: TR-FRET/HTRF, 4 nM ASK1, 1 μM STK3 peptide substrate, 100 μM ATP, 3 hr; average of quadruplicate determination
Excerpt: I. TR-FRET ASK1 (Apoptosis Signal-Regulating Kinase 1) Kinase Assay
To evaluate the inhibitory activity of compounds of the invention against ASK1 (Apoptosis Signal-regulating Kinase 1) kinase, its activity was examined using a TR-FRET ASK1 kinase assay which determined the amount of phosphate transferred to a peptide substrate from ATP.
Dephosphorylated recombinant human ASK1 kinase was from Gilead Sciences. Small molecule kinase inhibitor staurosporine (Catalogue #S6942) and dithiothreitol (DTT, catalogue #43815-5G) were obtained from Sigma Chemicals (St. Louis, Mo.). ATP (catalogue #7724) was from Affymetrix (Santa Clara, Calif.) and test compounds were from Gilead Sciences. HTRF KinEASE™-STK S3 kit was obtained from Cisbio (Bedford, Mass.). All other reagents were of the highest grade commercially available.
The assay measures the phosphorylation level of a biotinylated peptide substrate by the ASK1 kinase using HTRF detection. This is a competitive, time-resolved fluorescence resonance energy transfer (TR-FRET) immunoassay, based on HTRF® KinEASE™-STK manual from Cisbio. Test compound, 1 μM STK3 peptide substrate, 4 nM of ASK1 kinase were incubated with 10 mM MOP buffer, pH. 7.0 containing 10 mM Mg-acetate, 0.025% NP-40, 1 mM DTT, 0.05% BSA and 1.5% glycerol for 30 minutes then 100 μM ATP was added to start the kinase reaction and incubated for 3 hr. Peptide antibody labeled with 1×Eu^3+ Cryptate buffer containing 10 mM EDTA and 125 nM Streptavidin XL665 were added to stop the reaction and phosphorylated peptide substrate was detected using Envision 2103 Multilabeled reader from PerkinElmer. The fluorescence was measured at 615 nm (Cryptate) and 665 nm (XL665) and a ratio of 665 nm/615 nm was calculated for each well. The resulting TR-FRET level (a ratio of 665 nm/615 nm) was proportional to the phosphorylation level. Under these assay conditions, the degree of phosphorylation of peptide substrate was linear with time and concentration for the enzyme. The assay system yielded consistent results with regard to Km and specific activities for the enzyme. For inhibition experiments (IC50 values), activities were performed with constant concentrations of ATP, peptide and several fixed concentrations of inhibitors. Staurosporine, the nonselective kinase inhibitor, was used as the positive control. All enzyme activity data are reported as an average of quadruplicate determination.
The IC50 values were calculated following equation: y=Range/{1+(x/IC50)^s}+Background where x and y represent the concentration of inhibitors and enzyme activity, respectively. Enzyme activity is expressed as the amount of Phosphate incorporated into substrate peptide from ATP. Range is the maximum y range (no inhibitor, DMSO control) and s is a slope factor.

recombinant human ASK1 kinase, sequence (Q99683 whole entry): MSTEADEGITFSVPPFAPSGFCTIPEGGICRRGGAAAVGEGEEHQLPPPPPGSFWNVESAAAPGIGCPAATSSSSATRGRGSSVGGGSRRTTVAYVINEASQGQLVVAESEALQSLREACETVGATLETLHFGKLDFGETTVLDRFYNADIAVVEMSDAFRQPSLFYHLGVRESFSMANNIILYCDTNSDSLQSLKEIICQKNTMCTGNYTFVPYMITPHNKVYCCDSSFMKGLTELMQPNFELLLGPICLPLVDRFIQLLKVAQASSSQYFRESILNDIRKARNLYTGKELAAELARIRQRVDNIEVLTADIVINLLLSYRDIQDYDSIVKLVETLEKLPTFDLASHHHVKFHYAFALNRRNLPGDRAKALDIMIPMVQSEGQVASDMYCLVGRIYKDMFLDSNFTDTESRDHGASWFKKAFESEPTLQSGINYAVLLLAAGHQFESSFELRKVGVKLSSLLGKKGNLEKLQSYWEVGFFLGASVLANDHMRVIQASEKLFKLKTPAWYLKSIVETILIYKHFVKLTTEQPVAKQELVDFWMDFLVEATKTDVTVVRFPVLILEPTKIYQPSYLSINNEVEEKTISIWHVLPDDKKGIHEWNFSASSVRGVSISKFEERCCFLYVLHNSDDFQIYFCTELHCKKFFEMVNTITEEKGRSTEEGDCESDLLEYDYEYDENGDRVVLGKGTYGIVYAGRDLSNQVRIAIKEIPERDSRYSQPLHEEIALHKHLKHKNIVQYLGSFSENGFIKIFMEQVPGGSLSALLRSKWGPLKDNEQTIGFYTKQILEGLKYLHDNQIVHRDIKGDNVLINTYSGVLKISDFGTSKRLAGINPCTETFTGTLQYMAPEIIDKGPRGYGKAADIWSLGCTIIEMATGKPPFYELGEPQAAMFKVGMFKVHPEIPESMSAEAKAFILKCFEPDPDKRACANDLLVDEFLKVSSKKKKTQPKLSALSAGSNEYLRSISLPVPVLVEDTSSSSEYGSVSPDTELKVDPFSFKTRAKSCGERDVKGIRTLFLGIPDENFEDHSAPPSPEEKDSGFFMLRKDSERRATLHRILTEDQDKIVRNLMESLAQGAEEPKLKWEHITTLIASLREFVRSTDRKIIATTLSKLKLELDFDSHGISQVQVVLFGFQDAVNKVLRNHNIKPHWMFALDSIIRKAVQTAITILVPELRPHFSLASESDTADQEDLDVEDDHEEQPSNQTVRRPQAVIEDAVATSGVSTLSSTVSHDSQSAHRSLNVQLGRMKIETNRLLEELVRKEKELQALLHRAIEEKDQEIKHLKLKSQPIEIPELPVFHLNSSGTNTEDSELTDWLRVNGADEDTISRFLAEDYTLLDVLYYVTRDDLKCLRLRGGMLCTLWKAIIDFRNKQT

SMILES | pIC50
COC1(C)CN(c2cnc(C(=O)Nc3csc(-c4nncn4[C@@H](C)C(F)(F)F)n3)cc2-n2cnc(C3CC3)c2)C1 [Compound 25, (S)-4-(4-cyclopropyl-1H-imidazol-1-yl)-5-(3-methoxy-3-methylazetidin-1-yl)-N-(2-(4-(1,1,1-trifluoropropan-2-yl)-4H-1,2,4-triazol-3-yl)thiazol-4-yl)picolinamide] | 8.70
C[C@H](n1cnnc1-c1nc(NC(=O)c2cc(-n3cnc(C4CC4)c3)c(N3CC(C(F)F)C3)cn2)cs1)C(F)(F)F [Compound 26, (S)-4-(4-cyclopropyl-1H-imidazol-1-yl)-5-(3-(difluoromethyl)azetidin-1-yl)-N-(2-(4-(1,1,1-trifluoropropan-2-yl)-4H-1,2,4-triazol-3-yl)thiazol-4-yl)picolinamide] | 8.77
C[C@H](n1cnnc1-c1nc(NC(=O)c2cc(-n3cnc(C4CC4)c3)c(N3CCC(F)(F)C3)cn2)cs1)C(F)(F)F [Compound 27, (S)-4-(4-cyclopropyl-1H-imidazol-1-yl)-5-(3,3-difluoropyrrolidin-1-yl)-N-(2-(4-(1,1,1-trifluoropropan-2-yl)-4H-1,2,4-triazol-3-yl)thiazol-4-yl)picolinamide] | 8.68
C[C@H](n1cnnc1-c1nc(NC(=O)c2cc(-n3cnc(C4CC4)c3)c(N3CCC(C#N)CC3)cn2)cs1)C(F)(F)F [Compound 29, (S)-5-(4-cyanopiperidin-1-yl)-4-(4-cyclopropyl-1H-imidazol-1-yl)-N-(2-(4-(1,1,1-trifluoropropan-2-yl)-4H-1,2,4-triazol-3-yl)thiazol-4-yl)picolinamide] | 8.77
COC1CCN(c2cnc(C(=O)Nc3csc(-c4nncn4[C@@H](C)C(F)(F)F)n3)cc2-n2cnc(C3CC3)c2)CC1 [Compound 30, (S)-4-(4-cyclopropyl-1H-imidazol-1-yl)-5-(4-methoxypiperidin-1-yl)-N-(2-(4-(1,1,1-trifluoropropan-2-yl)-4H-1,2,4-triazol-3-yl)thiazol-4-yl)picolinamide] | 8.64
CNC(=O)C1CCN(c2cnc(C(=O)Nc3csc(-c4nncn4[C@@H](C)C(F)(F)F)n3)cc2-n2cnc(C3CC3)c2)CC1 [Compound 31, (S)-4-(4-cyclopropyl-1H-imidazol-1-yl)-5-(4-(methylcarbamoyl)piperidin-1-yl)-N-(2-(4-(1,1,1-trifluoropropan-2-yl)-4H-1,2,4-triazol-3-yl)thiazol-4-yl)picolinamide] | 8.64
C[C@H](n1cnnc1-c1nc(NC(=O)c2cc(-n3cnc(C4CC4)c3)c(N3CCC(C(F)(F)F)CC3)cn2)cs1)C(F)(F)F [Compound 32, (S)-4-(4-cyclopropyl-1H-imidazol-1-yl)-5-(4-(trifluoromethyl)piperidin-1-yl)-N-(2-(4-(1,1,1-trifluoropropan-2-yl)-4H-1,2,4-triazol-3-yl)thiazol-4-yl)picolinamide] | 8.82
C[C@H](n1cnnc1-c1nc(NC(=O)c2cc(-n3cnc(C4CC4)c3)c(N3CCC(F)CC3)cn2)cs1)C(F)(F)F [Compound 34, (S)-4-(4-cyclopropyl-1H-imidazol-1-yl)-5-(4-fluoropiperidin-1-yl)-N-(2-(4-(1,1,1-trifluoropropan-2-yl)-4H-1,2,4-triazol-3-yl)thiazol-4-yl)picolinamide] | 8.77
COC1(C)CCN(c2cnc(C(=O)Nc3csc(-c4nncn4[C@@H](C)C(F)(F)F)n3)cc2-n2cnc(C3CC3)c2)CC1 [Compound 35, (S)-4-(4-cyclopropyl-1H-imidazol-1-yl)-5-(4-methoxy-4-methylpiperidin-1-yl)-N-(2-(4-(1,1,1-trifluoropropan-2-yl)-4H-1,2,4-triazol-3-yl)thiazol-4-yl)picolinamide] | 8.66
C[C@H](n1cnnc1-c1nc(NC(=O)c2cc(-n3cnc(C4CC4)c3)c(N3CCCOCC3)cn2)cs1)C(F)(F)F [Compound 36, (S)-4-(4-cyclopropyl-1H-imidazol-1-yl)-5-(1,4-oxazepan-4-yl)-N-(2-(4-(1,1,1-trifluoropropan-2-yl)-4H-1,2,4-triazol-3-yl)thiazol-4-yl)picolinamide] | 8.72
C[C@H](n1cnnc1-c1nc(NC(=O)c2cc(-n3cnc(C4CC4)c3)c(N3CCN4CCCC4C3)cn2)cs1)C(F)(F)F (stereo partly drawn) [Compound 37, 4-(4-cyclopropyl-1H-imidazol-1-yl)-5-(hexahydropyrrolo[1,2-a]pyrazin-2(1H)-yl)-N-(2-(4-((S)-1,1,1-trifluoropropan-2-yl)-4H-1,2,4-triazol-3-yl)thiazol-4-yl)picolinamide] | 8.74
C[C@H](n1cnnc1-c1nc(NC(=O)c2cc(-n3cnc(C4CC4)c3)c(N3CC4CN(C)CC4C3)cn2)cs1)C(F)(F)F (stereo partly drawn) [Compound 38, 4-(4-cyclopropyl-1H-imidazol-1-yl)-5-(5-methylhexahydropyrrolo[3,4-c]pyrrol-2(1H)-yl)-N-(2-(4-((S)-1,1,1-trifluoropropan-2-yl)-4H-1,2,4-triazol-3-yl)thiazol-4-yl)picolinamide] | 8.62
C[C@H](n1cnnc1-c1nc(NC(=O)c2cc(-n3cnc(C4CC4)c3)c(N3CCN4C(=O)OCC4C3)cn2)cs1)C(F)(F)F (stereo partly drawn) [Compound 39, 4-(4-cyclopropyl-1H-imidazol-1-yl)-5-(3-oxotetrahydro-1H-oxazolo[3,4-a]pyrazin-7(3H)-yl)-N-(2-(4-((S)-1,1,1-trifluoropropan-2-yl)-4H-1,2,4-triazol-3-yl)thiazol-4-yl)picolinamide] | 8.64
C[C@H](n1cnnc1-c1nc(NC(=O)c2cc(-n3cnc(C4CC4)c3)c(N3CC4CC4C3)cn2)cs1)C(F)(F)F (stereo partly drawn) [Compound 40, 5-(3-azabicyclo[3.1.0]hexan-3-yl)-4-(4-cyclopropyl-1H-imidazol-1-yl)-N-(2-(4-((S)-1,1,1-trifluoropropan-2-yl)-4H-1,2,4-triazol-3-yl)thiazol-4-yl)picolinamide] | 8.66
C[C@H](n1cnnc1-c1nc(NC(=O)c2cc(-n3cnc(C4CC4)c3)c(N3CC(N4CCOCC4)C3)cn2)cs1)C(F)(F)F [Compound 41, (S)-4-(4-cyclopropyl-1H-imidazol-1-yl)-5-(3-morpholinoazetidin-1-yl)-N-(2-(4-(1,1,1-trifluoropropan-2-yl)-4H-1,2,4-triazol-3-yl)thiazol-4-yl)picolinamide] | 8.72
C[C@H](n1cnnc1-c1nc(NC(=O)c2cc(-n3cnc(C4CC4)c3)c(N3CCN(C4CC4)CC3)cn2)cs1)C(F)(F)F [Compound 42, (S)-4-(4-cyclopropyl-1H-imidazol-1-yl)-5-(4-cyclopropylpiperazin-1-yl)-N-(2-(4-(1,1,1-trifluoropropan-2-yl)-4H-1,2,4-triazol-3-yl)thiazol-4-yl)picolinamide] | 8.74
C[C@H](n1cnnc1-c1nc(NC(=O)c2cc(-n3cnc(C4CC4)c3)c(N3CCN(CC4CC4)CC3)cn2)cs1)C(F)(F)F [Compound 43, (S)-4-(4-cyclopropyl-1H-imidazol-1-yl)-5-(4-(cyclopropylmethyl)piperazin-1-yl)-N-(2-(4-(1,1,1-trifluoropropan-2-yl)-4H-1,2,4-triazol-3-yl)thiazol-4-yl)picolinamide] | 8.74
C[C@H](n1cnnc1-c1nc(NC(=O)c2cc(-n3cnc(C4CC4)c3)c(N3CCC4(CC3)COC4)cn2)cs1)C(F)(F)F [Compound 44, (S)-4-(4-cyclopropyl-1H-imidazol-1-yl)-5-(2-oxa-7-azaspiro[3.5]nonan-7-yl)-N-(2-(4-(1,1,1-trifluoropropan-2-yl)-4H-1,2,4-triazol-3-yl)thiazol-4-yl)picolinamide] | 8.68
C[C@H](n1cnnc1-c1nc(NC(=O)c2cc(-n3cnc(C4CC4)c3)c(N3CC4(CCOCC4)C3)cn2)cs1)C(F)(F)F [Compound 45, (S)-4-(4-cyclopropyl-1H-imidazol-1-yl)-5-(7-oxa-2-azaspiro[3.5]nonan-2-yl)-N-(2-(4-(1,1,1-trifluoropropan-2-yl)-4H-1,2,4-triazol-3-yl)thiazol-4-yl)picolinamide] | 8.59
